For this assay, the target named is T1, PDE5A1 (Homo sapiens, UniProt O76074).
T1 construct: gene PDE5A; human recombinant PDE5A1 protein
Kind of assay: cAMP/cGMP-based PDE enzyme assay, recombinant protein. Type of assay: biochemical.

Consider `CCc1cc(C#N)cc2c(NCc3ccc(OC)c(Cl)c3)c(COCCF)cnc12` [ICF24027, 4-[(3-Chloro-4-methoxybenzyl)amino]-8-ethyl-3-[(2-fluoroethoxy)methyl]quinoline-6-carbonitrile], for which the IC50 was 1.86 nM.
